Read-outs that look alike come from different tables or passages of the source.
System: hedgehog signaling pathway
Assay: Gli-Luc Reporter Assay for Hh Pathway Inhibition (TMHh-12 cells, pTA-8×Gli-Luc reporter)
Assay type: cell-based, Mouse
Experimental: Compounds of the present invention are assayed to evaluate their capacity to inhibit the hedgehog signaling pathway.
Gli-Luc Reporter Assay for Hh Pathway Inhibition
Mouse TM3 cells (obtained from American Type Culture Collection, ATCC, Manassas, Va.) are cultured in DMEM/F12 medium (Gibco/Invitrogen, Carlsbad, Calif.) supplemented with 5% heat inactivated horse serum and 2.5% FBS (Gibco/Invitrogen, Carlsbad, Calif.), 50 unit/mL penicillin and 50 μg/mL of streptomycin (Gibco/Invitrogen, Carlsbad, Calif.) at […] with 5% CO2 in air atmosphere. TM3 cells were transfected with pTA-8×Gli-Luc reporter plasmid. A stably transfected clone termed TMHh-12 was selected. […] To evaluate the IC50s of the antagonists, 8000 TMHh-12 cells were plated into each wells in 384-well plates with 50% DMEM/F12 medium supplemented with 2% FBS. After 12 hours, Hh pathway is activated by adding recombinant mouse Shh protein (expressed in E. coli, 8 μg/mL) or by adding Smo agonists. The testing compounds are added into plates with different concentrations. After 48 hours, the firefly luciferase luciferase activities are assayed with the Bright-Glo™ Luciferase Assay System (Promega, Madison, Wis.). The IC50 is measured when the effect of the compound reduces the luminescence signal by 50%. Toxicity of these compounds are evaluated in TM3 cells using CellTiter Glo assays or by TM3-Luc cell line (a TM3 cell stably transfected with a constitutive luciferase expression vector).

[1] = Mus musculus, TMHh12, Ag1.5 1 nM, read-out: Hedgehog Inhibition IC50 (nM) (Ag1.5 1 nM)
[2] = Mus musculus, TMHh12, enzymatic and cellular assays for the inhibition of hedgehog signaling pathways, read-out: IC50 Ranges
[3] = enzymatic and cellular assays for the inhibition of hedgehog signaling pathways, read-out: IC50 Ranges

Structure (SMILES)	IC50 [1]	IC50 [2]	IC50 [3]
Cc1ccc(Nc2cccc3c2CCN(S(C)(=O)=O)C3)cc1-c1ccccc1 [Compound 115]	362 nM	100 to 1000 nM	–
Cc1cc2c(cn1)cc(-c1cc(Nc3cccc4c3CCN(S(C)(=O)=O)C4)ccc1C)c(=O)n2C [Compound 116]	694 nM	100 to 1000 nM	–
Cc1ccc(Nc2cccc3c2CCN(S(C)(=O)=O)C3)cc1-c1ccc(C(C)C)cc1 [Compound 117]	–	100 to 1000 nM	–
Cc1ccc(Nc2cccc3c2CCN(S(C)(=O)=O)C3)cc1-c1ccc(Cn2cccn2)cc1 [Compound 118]	–	100 to 1000 nM	–
Cc1ccc(Nc2cccc3c2CCN(S(C)(=O)=O)C3)cc1-c1cccc(C#N)c1 [Compound 119]	–	10 to 100 nM	–
Cc1nc(-c2ccc(-c3cc(Nc4cccc5c4CCN(S(C)(=O)=O)C5)ccc3C)cc2)cs1 [Compound 120]	–	10 to 100 nM	–
Cc1ccc(Nc2cccc3c2CCN(S(C)(=O)=O)C3)cc1-c1ccc(-c2ccco2)cc1 [Compound 121]	–	100 to 1000 nM	–
Cc1ccc(Nc2cccc3c2CCN(S(C)(=O)=O)C3)cc1-c1ccc(F)cc1 [Compound 122]	–	100 to 1000 nM	–
Cc1ccc(Nc2cccc3c2CCN(S(C)(=O)=O)C3)cc1Oc1ccccc1 [Compound 123]	738 nM	100 to 1000 nM	–
Cc1ccc(Nc2cccc3c2CCN(S(C)(=O)=O)C3)cc1-c1cnc(N(C)C)nc1 [Compound 124]	135 nM	100 to 1000 nM	–
Cc1ccc(Nc2nccc3c2CCN(S(C)(=O)=O)C3)cc1-c1ccc(C#N)cc1 [Compound 125]	–	10 to 100 nM	–
CS(=O)(=O)N1CCc2c(cccc2Nc2cc(-c3nc4ccccc4[nH]3)c(Cl)cn2)C1 [Compound 126]	–	10 to 100 nM	–
Cc1ccc(Nc2cccc3c2CCN(CC2(C)CC2)C3=O)cc1-c1nc2ccccc2[nH]1 [Compound 127]	–	10 to 100 nM	–
Cc1ccc(Nc2cccc3c2CCN(S(C)(=O)=O)C3)cc1-c1cnn(C)c1 [Compound 128]	–	100 to 1000 nM	–
Cc1ccc(Nc2cccc3c2CCN(S(C)(=O)=O)C3)cc1-c1ccc(C#N)nc1 [Compound 129]	52 nM	10 to 100 nM	–
Cc1ccc(Nc2cccc3c2CCN(S(C)(=O)=O)C3)cc1OCc1ccccc1 [Compound 130]	–	1 to 10 nM	–
CS(=O)(=O)N1CCc2c(cccc2Nc2ccc(F)c(-c3ccc(C#N)cc3)c2)C1 [Compound 131]	–	10 to 100 nM	–
CS(=O)(=O)N1CCc2c(cccc2Nc2cccc(-c3ccc(C#N)cc3)c2)C1 [Compound 132]	–	10 to 100 nM	–
CS(=O)(=O)N1CCc2c(ccnc2Nc2ccc(Cl)c(-c3ncc(-c4ccccc4)[nH]3)c2)C1 [Compound 133]	–	0.001 to 1 nM	–
CS(=O)(=O)N1CCc2c(cccc2Nc2ccc(Cl)c(-c3ccc(C#N)cc3)c2)C1 [Compound 134]	–	10 to 100 nM	–
CNC(=O)c1cccc(-c2cc(Nc3cccc4c3CCN(S(C)(=O)=O)C4)ccc2C)c1 [Compound 135]	4180 nM	1000 to 10000 nM	–
Cc1ccc(Nc2cccc3c2CCN(S(C)(=O)=O)C3)cc1-c1ccc(C(F)(F)F)cc1 [Compound 136]	90 nM	10 to 100 nM	–
Cc1ccc(Nc2cccc3c2CCN(S(C)(=O)=O)C3)cc1-c1ccc(OC(F)(F)F)cc1 [Compound 137]	–	10 to 100 nM	–
Cc1ccc(Nc2cccc3c2CCN(S(C)(=O)=O)C3)cc1-c1ccc(C(=O)N(C)C)cc1 [Compound 138]	–	100 to 1000 nM	–
Cc1ccc(Nc2cccc3c2CCN(S(C)(=O)=O)C3)cc1-c1ccc(CC#N)cc1 [Compound 139]	101 nM	100 to 1000 nM	–
Cc1ccc(Nc2cccc3c2CCN(S(C)(=O)=O)C3)cc1-c1cccc(C(=O)N2CCCC2)c1 [Compound 140]	2940 nM	1000 to 10000 nM	–
COC(=O)c1ccc(-c2cc(Nc3cccc4c3CCN(S(C)(=O)=O)C4)ccc2C)cc1 [Compound 141]	–	100 to 1000 nM	–

Structure (SMILES)	IC50 [1]	IC50 [2]	IC50 [3]
Cc1ccc(Nc2cccc3c2CCN(S(C)(=O)=O)C3)cc1-c1ccc(C(N)=O)cc1 [Compound 142]	–	100 to 1000 nM	–
Cc1ccc(Nc2cccc3c2CCN(S(C)(=O)=O)C3)cc1-c1ccc(-c2nnn[nH]2)cc1 [Compound 143]	> 10000 nM	> 10000 nM	–
Cc1ccc(Nc2cccc3c2CCN(S(C)(=O)=O)C3)cc1-c1ccc(C(=O)O)cc1 [Compound 144]	–	1000 to 10000 nM	–
Cc1ccc(Nc2cccc3c2CCN(S(C)(=O)=O)C3)cc1-c1ccc(C(=O)NCCO)cc1 [Compound 145]	–	100 to 1000 nM	–
Cc1ccc(Nc2cccc3c2CCN(S(C)(=O)=O)C3)cc1-c1ccc(C(=O)NCC(O)CO)cc1 (stereo not drawn) [Compound 146]	–	1000 to 10000 nM	–
Cc1ccc(Nc2cccc3c2CCN(S(C)(=O)=O)C3)cc1-c1ccc(C(=O)N(CCO)CCO)cc1 [Compound 147]	–	1000 to 10000 nM	–
Cc1ccc(Nc2cccc3c2CCN(S(C)(=O)=O)C3)cc1-c1ccc(C(=O)NCC(C)O)cc1 (stereo not drawn) [Compound 148]	–	100 to 1000 nM	–
COc1ccc(Nc2cccc3c2CCN(S(C)(=O)=O)C3)cc1-c1ccc(C#N)cc1 [Compound 149]	–	100 to 1000 nM	–
CS(=O)(=O)N1CCc2c(cccc2Nc2ccc(OC(F)(F)F)c(-c3ccc(C#N)cc3)c2)C1 [Compound 150]	–	1000 to 10000 nM	–
Cc1ccc(Nc2cccc3c2CCN(S(C)(=O)=O)C3)cc1-c1cc2ccccc2[nH]1 [Compound 151]	–	10 to 100 nM	–
Cc1ccc(Nc2cccc3c2CCN(S(C)(=O)=O)C3)cc1-c1cc2ccccc2n1C [Compound 152]	–	10 to 100 nM	–
Cc1ccc(Nc2cccc3c2CCN(S(C)(=O)=O)C3)cc1-c1ccc(C(F)(F)F)cn1 [Compound 153]	–	–	0.001 to 1 nM
Cc1ccc(Nc2cccc3c2CCN(S(C)(=O)=O)C3)cc1-c1ccc(C#N)cn1 [Compound 154]	–	1 to 10 nM	–
CS(=O)(=O)N1CCc2c(cccc2Nc2ccc(C#N)c(-c3ccc(C#N)cc3)c2)C1 [Compound 155]	–	100 to 1000 nM	–
Cc1ccc(Nc2cccc3c2CCN(S(C)(=O)=O)C3)cc1-c1ccc(CO)cc1 [Compound 156]	564 nM	100 to 1000 nM	–
Cc1ccc(Nc2cccc3c2CCN(S(C)(=O)=O)C3)cc1-c1ccc(CNCC(O)CO)cc1 (stereo not drawn) [Compound 157]	–	1000 to 10000 nM	–
Cc1ccc(Nc2cccc3c2CCN(S(C)(=O)=O)C3)cc1-c1ccc(CNCCO)cc1 [Compound 158]	–	100 to 1000 nM	–
Cc1ccc(Nc2cccc3c2CCN(S(C)(=O)=O)C3)cc1C(=O)Nc1ccccc1 [Compound 159]	0.1 nM	0.001 to 1 nM	–
Cc1ccc(Nc2cccc3c2CCN(S(C)(=O)=O)C3)cc1C(=O)Nc1ccc(C#N)cc1 [Compound 160]	1 nM	0.001 to 1 nM	–
COc1ccc(NC(=O)c2cc(Nc3cccc4c3CCN(S(C)(=O)=O)C4)ccc2C)cc1 [Compound 161]	–	0.001 to 1 nM	–
Cc1ccc(Nc2cccc3c2CCN(S(C)(=O)=O)C3)cc1C(=O)Nc1ccccn1 [Compound 162]	2.1 nM	1 to 10 nM	–
Cc1cc(C#N)ccc1-c1cc(Nc2cccc3c2CCN(S(C)(=O)=O)C3)ccc1C [Compound 163]	47 nM	10 to 100 nM	–
Cc1ccc(Nc2cccc3c2CCN(S(C)(=O)=O)C3)cc1-c1ccc(F)cn1 [Compound 164]	–	0.001 to 1 nM	–
COc1cccc(-c2cc(Nc3cccc4c3CCN(S(C)(=O)=O)C4)ccc2C)n1 [Compound 165]	–	100 to 1000 nM	–
Cc1ccc(Nc2cccc3c2CCN(S(C)(=O)=O)C3)cc1OCc1ccc(C#N)cc1 [Compound 166]	–	10 to 100 nM	–
Cc1ccc(Nc2cccc3c2CCN(S(C)(=O)=O)C3)cc1-c1ccc(C(F)(F)F)cn1 [Compound 167]	–	–	1 to 10 nM
Cc1cc(C#N)ccc1-c1cccc(Nc2cccc3c2CCN(S(C)(=O)=O)C3)c1 [Compound 168]	–	100 to 1000 nM	–

Reference: patent US9216964B2, “Hedgehog pathway modulators” (Novartis AG, priority 2008, dated 2015)
